Entries after “also recorded” stand apart in the source; their conditions may differ.
Assays:
[1] = normal rats; ICG 10 μg/kg, sodium fluorescein 2 mg/kg; cited from earlier work
[2] = normal value; cited from earlier work
Mrp2, Mrp3, and Mrp4 = conditions: daily gavage for 4 days consecutively; normal mouse liver (without IRI); cited from earlier work
[3] = Sodium fluorescein clearance kinetics in blood and bile in the in vivo rat hepatic IRI model; parameters: species or system Sprague-Dawley rats
Excerpt: Male 7- to 8-wk-old Sprague-Dawley rats (median body weight of 243 g, interquartile range of 228-260 g, Charles River Laboratories) were housed in an animal facility accredited by the Association for Assessment and Accreditation of Laboratory Animal Care. The rats were fed Purina Lab Diet 5001 and reverse osmosis water ad libitum. All animals received humane care in accordance with the National Institutes of Health Guide for the Care and Use of Laboratory Animals. Only male rats were used in these experiments because multidrug resistance-associated protein 2 (MRP2), which is responsible for fluorescein excretion from the hepatocyte, is impaired by estradiol glucuronide. All experiments were approved by the Institutional Animal Care and Use Committee at the Medical College of Wisconsin (animal use Application No. 00004857).
We evaluated the effect of hepatic IRI on sodium fluorescein clearance by applying different warm ischemia times (WITs; 0 min, 30 min, or 60 min) and reperfusion times (1 h or 4 h). Thus, there were five experimental groups (n=5 each) based on ischemia and reperfusion times: no ischemia (control), brief ischemia (30 min) followed by 1 h of reperfusion, prolonged ischemia (60 min) followed by 1 h of reperfusion, brief ischemia (30 min) followed by 4 h of reperfusion, and prolonged ischemia (60 min) followed by 4 h of reperfusion (FIG. 32A).
Surgery was performed under isoflurane inhalation anesthesia (1%-3%; oxygen flow 1 L/min). Animals were placed on a warming pad set to obtain a temperature of around 39° C. (Far Infrared Warming Pad, Kent Scientific, Torrington, CT). A transverse abdominal incision was made, and the pedicles to the median and lateral lobes of the liver (˜70% of the volume of the liver) were temporarily occluded using a small vascular clamp (FE011K, Aesculap, Melsungen, Germany). This approach has been utilized for testing the effect of hepatic IRI on biliary excretion of fluorescein. During the designated time period for hepatic IRI, the abdominal wall was temporarily closed to prevent dehydration and heat loss.
For injection and sampling, blood vessels and the bile duct were cannulated as follows: a midline incision was made on the neck, and 8- to 10-cm polyethylene tubes were cannulated to the right jugular vein (0.58 mm inner diameter (ID)×0.97 mm outer diameter (OD); PE50, Braintree Scientific, Braintree, MA) and right carotid artery (0.28 mm ID×0.61 mm OD; PE10, Braintree Scientific, Braintree, MA). The polyethylene tubes in the vessels were attached to a 30-gauge blunt needle (SAI Infusion Technologies, Lake Villa, IL) and filled with 20 U/mL heparin in 0.9% saline. Another polyethylene tube (0.28 mm ID×0.61 mm OD; PE10, Braintree Scientific, Braintree, MA) was cannulated into the bile duct for bile sampling (FIG. 33B). The cannulation procedure was performed under a surgical microscope (Amscope, Irvine, CA).
Blood and bile were collected at eight time points over 60 min (0, 2, 5, 10, 20, 30, 45, and 60 min). At each time point, 180 μL of blood was collected by a heparin-coated syringe from the polyethylene tubing in the left carotid artery and mixed with 20 μL of heparin solution (10,000 U/mL). Of this 200-μL blood sample, 20 μL was used for whole blood analysis. The remaining 180 μL was centrifuged (3,000 rpm for 10 min), and 20 μL of supernatant was collected for plasma sample analysis. Likewise, 30 μL of bile was collected from the polyethylene tubing in the bile duct at each time point.
Once the baseline (0 min) samples were collected, sodium fluorescein (Sigma-Aldrich, St. […]
The blood, plasma, and bile samples (20 μL each) were placed in a 384-well plate (Greiner Bio-one, Monroe, NC) and covered with plastic film to minimize evaporation. The fluorescence intensity was measured in the samples using a microplate reader (CLARIOstar, BMG Labtech, Ortenberg, Germany), with the excitation set at 478 nm and emission light collected within the 505-552-nm spectral range. […]

[4] = cited from earlier work
[5] = Fluorescein clearance (bile-to-perfusate fluorescence) in ex vivo rat liver machine perfusion; conditions: WIT varied, CIT constant at 3 hours
Excerpt: This Example presents data obtained using ex vivo rat liver tissue in a perfusion machine system and provides further evidence supporting the usefulness of such measurements as a way to assess transplant tissue health and quality. With liver transplant there are two ischemia times: warm ischemia time (WIT) which is the time from tissue removal from the donor until cold fluid perfusion into the liver tissue; after cold perfusion, the remaining ischemia is termed cold ischemia time (CIT), which is slower. Most liver tissue can tolerate up to 30 min. of WIT whereas CIT can be tolerated for up to 12 hours. A certain amount of WIT and CIT cannot be prevented since some time is always required at each stage, nevertheless the goal is to minimize WIT.
In the experiments of FIG. 39, the WIT was varied while keeping the CIT constant at 3 hours. After this regimen, the fluorescein clearance was tested and the ratio of fluorescein in bile relative to the amount in perfusate was determined at various times.

[6] = severe hepatic IRI (WIT=60 min) vs control and mild IRI groups, 2 mg/kg i.v.

Row | bile-to-plasma (or bile-to-whole blood) fluorescence ratios in the 60-min WIT group ([3]; 2 mg/kg i.v., vs control or 30-min WIT groups) | excretion of fluorescein measured by fluorescence in bile samples ([3]; IRI vs control, intravenous infusion, preliminary in vivo rat experiment (FIG. 4)) | significant clearance of fluorescein from blood into bile ([3]; i.v. bolus 2 mg/kg) | delay of clearance from blood into bile ([3]; i.v. dose of 10 mg/kg) | hepatic clearance of fluorescein ([3]; in hepatic IRI) | fluorescence intensities in bile [3, 6] | fluorescence intensities in whole blood and plasma [3, 6] | area under the curve (AUC) of bile-to-perfusate fluorescence intensity [5] | time course of bile-to-perfusate fluorescence intensity values (excretion of fluorescein) [5] | SMILES | time to reach a steady state [1] [min] | ICG retention ratio after 15 min (ICGR15) [2] [%] | plasma disappearance rate (ICGPDR) [2] | induction of Mrp2, Mrp3, and Mrp4 (Mrp2, Mrp3, and Mrp4) | bile-to-plasma fluorescence ratios across warm ischemia time (WIT) groups ([3]; 2 mg/kg i.v., WIT 0, 30, 60 min, 1 h or 4 h reperfusion) | time to equilibrium of fluorescence intensity in hepatocytes and bile ([4]; after dye injection) [min] | time in which metabolism by the liver through membrane transporters and excretion into bile occurs ([4]; healthy liver) [min] | time to clearance from the blood into the bile ([4]; intravenous administration, normal livers) [min]
1 | – | – | – | – | – | – | – | – | – | CC1(C)C(/C=C/C=C/C=C/C=C2\N(CCCCS(=O)(=O)O)c3ccc4ccccc4c3C2(C)C)=[N+](CCCCS(=O)(=O)[O-])c2ccc3ccccc3c21 [ICG, Indocyanine green] | < 30 | < 10 | over 18 %/min | – | – | – | – | –
2 | – | – | – | – | – | – | – | – | – | Cc1c(-c2cnccn2)ssc1=S [oltipraz] | – | – | – | induced | – | – | – | –
3 | distinctly lower | noticeably compromised | observed immediately | over 1 h | suppressed | lower | elevated | inversely correlated with WIT | compromised excretion | O=C1OC2(c3ccc(O)cc3Oc3cc(O)ccc32)c2ccccc21 [sodium fluorescein] | < 10 | – | – | – | inverse correlation with WIT; also recorded: stepwise decrease | ≤ 5 | ≤ 15 | ≤ 5

Source: patent US20250324965A1, “Indicator Clearance Monitoring in Machine Perfusion of an Organ” (The Medical College of Wisconsin, Inc., priority 2021, published 2025)
